We go through 62 compounds from PubChem BioAssay AID588426 (Johns Hopkins Ion Channel Center, 2011).

As usually defined, the IC50 is the concentration that inhibits the measured activity by half.

Activity calls are given as the source filed them.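 The calls were made as follows: active = blocks KCNQ2 potassium channel current at some tested dose, with a fitted dose response curve; inactive = the rest.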

This assay has as its target Potassium voltage-gated channel subfamily KQT member 2 (Rattus norvegicus) (UniProt O88943). As to the kind of experiment: blockers of rat KCNQ2 potassium current – automated electrophysiology, CHO cells, CRC2, orthogonal assay for KCNQ2 inhibitor project, SAR follow-up (AID 588426). The note with it: KCNQ2-CHO automated patch clamp current; for current change, negative = inhibition: at 30 µM (top of the series). (Patch clamp records ionic current or voltage across a cell membrane.)

Potassium voltage-gated channel subfamily KQT member 2 (Rattus norvegicus), sequence (O88943 whole entry, looked up): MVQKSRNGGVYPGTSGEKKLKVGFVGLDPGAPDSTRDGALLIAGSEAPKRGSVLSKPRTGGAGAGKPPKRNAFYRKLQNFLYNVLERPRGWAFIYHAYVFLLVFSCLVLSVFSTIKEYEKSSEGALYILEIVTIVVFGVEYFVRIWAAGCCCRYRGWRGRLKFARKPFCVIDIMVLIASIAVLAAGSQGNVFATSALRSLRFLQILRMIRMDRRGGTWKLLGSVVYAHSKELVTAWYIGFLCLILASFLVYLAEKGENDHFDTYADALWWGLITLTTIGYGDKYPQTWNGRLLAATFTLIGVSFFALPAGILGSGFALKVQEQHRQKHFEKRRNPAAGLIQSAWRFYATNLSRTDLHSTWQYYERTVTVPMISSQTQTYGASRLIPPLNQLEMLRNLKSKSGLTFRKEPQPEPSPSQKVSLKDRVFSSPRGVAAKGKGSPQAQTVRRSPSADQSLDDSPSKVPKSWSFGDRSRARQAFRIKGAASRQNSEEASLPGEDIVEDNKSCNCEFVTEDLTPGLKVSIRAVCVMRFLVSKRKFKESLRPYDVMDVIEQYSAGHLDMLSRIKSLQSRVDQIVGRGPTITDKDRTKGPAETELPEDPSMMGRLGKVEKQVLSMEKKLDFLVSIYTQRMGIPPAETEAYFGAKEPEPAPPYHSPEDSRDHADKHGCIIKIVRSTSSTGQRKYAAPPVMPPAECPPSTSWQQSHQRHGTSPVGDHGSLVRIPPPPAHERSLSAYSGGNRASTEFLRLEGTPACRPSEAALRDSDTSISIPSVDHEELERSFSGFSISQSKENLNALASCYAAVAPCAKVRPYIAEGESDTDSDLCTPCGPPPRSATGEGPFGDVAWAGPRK

Take `CCC(C(=O)Nc1ccccc1N1CCCC1)c1ccc(Cl)cc1` (configuration not stated): the half-maximal inhibitory concentration (IC50) is 280 nM.

`COc1ccc(CC(=O)Nc2ccccc2N2CCCC2)cc1`: the IC50 was 1750 nM.

For `CCC(C(=O)Nc1ccccc1N1CCCC1)c1cccc(C(F)(F)F)c1` (configuration not stated), the IC50 was 390 nM.

For `O=C(Nc1ccccc1N1CCCC1)C(F)c1ccccc1` (configuration not stated), the half-inhibitory concentration (IC50) is 990 nM.

On to `Cc1cccc(CC(=O)Nc2ccccc2N2CCCC2)c1`, for which the 50% inhibitory concentration (IC50) was 1320 nM.

Regarding `O=C(Cc1ccccc1F)Nc1ccccc1N1CCCC1`, the “current change, negative = inhibition” value was “inactive”.

Turning to `O=C(Nc1ccccc1N1CCCC1)[C@H]1CCCc2ccccc21`, the IC50 was 24600 nM.

For the compound `O=C(Cc1cccc(C(F)(F)F)c1)Nc1ccccc1N1CCCC1`, the 50% inhibitory concentration (IC50) was 350 nM.

Regarding `O=C(Nc1ccccc1N1CCCC1)C1CCOc2ccccc21` (configuration not stated), the “current change, negative = inhibition” value is “inactive”.

Regarding `O=C(Cc1ccc(Cl)cc1)Nc1ccccc1N1CCCC1`, the IC50 was 800 nM.

On to `CCC(C(=O)Nc1ccccc1-n1cccc1)c1ccccc1` (configuration not stated), for which the IC50 was 5270 nM.

For the compound `CCC(C(=O)Nc1ccccc1N(C)C)c1ccccc1` (configuration not stated), the IC50 was 17400 nM.

With `O=C(Cc1cccc(F)c1)Nc1ccccc1N1CCCC1`, the IC50 was 490 nM.

With `CC[C@H](C(=O)Nc1ccc(N2CCCC2)cc1)c1ccccc1`, the concentration for half-maximal inhibition (IC50) is 110 nM.

With `CCC(C(=O)Nc1ccccc1N1CCCC1)c1ccccc1Cl` (configuration not stated), the half-maximal inhibitory concentration (IC50) was 3310 nM.

As for `CCCC(C(=O)Nc1ccccc1N1CCCC1)c1ccccc1` (configuration not stated), the IC50 is 320 nM.

Turning to `CC(C)C(C(=O)Nc1ccccc1N1CCCC1)c1ccccc1` (configuration not stated), the “current change, negative = inhibition” value is “inactive”.

On to `CCC(C(=O)Nc1ccccc1N1CCCC1)c1ccc(OC)c(OC)c1` (configuration not stated), for which the 50% inhibitory concentration (IC50) was 20200 nM.

With `CCC(C(=O)Nc1ccccc1-n1ccnc1)c1ccccc1` (configuration not stated), the “current change, negative = inhibition” value was “inactive”.

On to `O=C(Nc1ccccc1N1CCCC1)[C@@H]1CCCc2ccccc21`, for which the concentration for half-maximal inhibition (IC50) was 29900 nM.

Turning to `O=C(Nc1ccccc1N1CCCC1)[C@H]1CCc2ccccc21`, the 50% inhibitory concentration (IC50) is 14100 nM.

For `CCC(C(=O)Nc1ccccc1N1CCCC1)c1cccc(F)c1` (configuration not stated), the concentration for half-maximal inhibition (IC50) was 360 nM.

Turning to `CCC(C(=O)Nc1ccccc1N1CCCC1)c1ccc(OC)cc1` (configuration not stated), the IC50 is 380 nM.

With `CC[C@@H](C(=O)Nc1ccccc1N1CCCC1)c1ccccc1`, the IC50 is 940 nM.

On to `C[C@H](C(=O)Nc1ccccc1N1CCCC1)c1ccccc1`, for which the IC50 is 590 nM.

Take `CCC(C(=O)Nc1ccccc1N1CCCCC1)c1ccccc1` (configuration not stated): the “current change, negative = inhibition” value is “inactive”.

`CCC(C(=O)Nc1ccccc1N1CCCC1)c1ccc(Cl)c(Cl)c1` (configuration not stated): the half-inhibitory concentration (IC50) was 470 nM.

Regarding `COc1cccc(CC(=O)Nc2ccccc2N2CCCC2)c1`, the half-inhibitory concentration (IC50) was 2350 nM.

Consider `O=C(Nc1ccccc1N1CCCC1)C1(c2ccccc2)CC1`, for which the “current change, negative = inhibition” value is “inactive”.

On to `CCC(C(=O)Nc1ccccc1N1CCCC1)c1cccc(Cl)c1` (configuration not stated), for which the half-maximal inhibitory concentration (IC50) was 240 nM.

Turning to `CCC(C(=O)Nc1ccccc1-n1c(C)ccc1C)c1ccccc1` (configuration not stated), the “current change, negative = inhibition” value was “inactive”.

In the case of `O=C(Cc1c(F)cccc1F)Nc1ccccc1N1CCCC1`, the IC50 was 560 nM.

As for `CCC(C(=O)Nc1ccccc1N1CCCC1)c1ccccc1F` (configuration not stated), the IC50 is 440 nM.

`CCC(C(=O)Nc1ccccc1N1CCCCCCC1)c1ccccc1` (configuration not stated): the “current change, negative = inhibition” value was “inactive”.

`CCC(C(=O)Nc1ccccc1N1CCCC1)c1ccccc1` (configuration not stated): the IC50 was 160 nM.

Consider `CCC(C(=O)Nc1ccccc1N1CCCC1)c1ccc(F)c(F)c1` (configuration not stated), for which the concentration for half-maximal inhibition (IC50) was 170 nM.

For the compound `O=C(Cc1ccccc1)Nc1ccccc1N1CCCC1`, the IC50 is 740 nM.

Turning to `CCC(C(=O)Nc1ccccc1OC)c1ccccc1` (configuration not stated), the “current change, negative = inhibition” value is “inactive”.

On to `CCC(C(=O)Nc1ccccc1Cl)c1ccccc1` (configuration not stated), for which the concentration for half-maximal inhibition (IC50) was 15000 nM.

For the compound `CC[C@H](C(=O)Nc1ccccc1N1CCCC1)c1ccccc1`, the half-inhibitory concentration (IC50) was 80 nM.

In the case of `CCC(C(=O)Nc1ccccc1N1CCCC1)c1ccc(F)cc1` (configuration not stated), the half-maximal inhibitory concentration (IC50) is 130 nM.

`O=C(Cc1cccc(Cl)c1)Nc1ccccc1N1CCCC1`: the IC50 is 170 nM.

As for `C[C@@H](C(=O)Nc1ccccc1N1CCCC1)c1ccccc1`, the IC50 was 5130 nM.

For `O=C(Cc1ccc(F)c(F)c1)Nc1ccccc1N1CCCC1`, the IC50 was 1730 nM.

With `CCC(C(=O)Nc1ccccc1N1CCCC1)c1cccc(C)c1` (configuration not stated), the concentration for half-maximal inhibition (IC50) is 330 nM.

`O=C(Cc1ccc(F)cc1)Nc1ccccc1N1CCCC1`: the 50% inhibitory concentration (IC50) was 700 nM.

Regarding `CCC(C(=O)Nc1ccccc1N1CCCC1)c1cccc(OC)c1` (configuration not stated), the concentration for half-maximal inhibition (IC50) is 120 nM.

On to `O=C(Cc1ccc(Cl)c(Cl)c1)Nc1ccccc1N1CCCC1`, for which the half-maximal inhibitory concentration (IC50) is 1070 nM.

Take `CCC(C(=O)Nc1ccccc1N1C(=O)CCC1=O)c1ccccc1` (configuration not stated): the “current change, negative = inhibition” value is “inactive”.

`O=C(Nc1ccccc1N1CCCC1)[C@@H]1CCc2ccccc21`: the half-maximal inhibitory concentration (IC50) is 2290 nM.

With `CC(C)(C(=O)Nc1ccccc1N1CCCC1)c1ccccc1`, the “current change, negative = inhibition” value was “inactive”.

For `O=C(Cc1ccccc1Cl)Nc1ccccc1N1CCCC1`, the IC50 was 950 nM.

`CC[C@@H](C(=O)Nc1ccc(N2CCCC2)cc1)c1ccccc1`: the IC50 is 360 nM.

Turning to `CCC(C(=O)Nc1ccccc1N(C)CC)c1ccccc1` (configuration not stated), the “current change, negative = inhibition” value is “inactive”.

With `CCC(C(=O)Nc1ccccc1N1CCOCC1)c1ccccc1` (configuration not stated), the IC50 was 12700 nM.

Regarding `CC(C(=O)Nc1ccccc1N1CCCC1)c1ccccc1` (configuration not stated), the IC50 was 260 nM.

In the case of `CC(C)CC(C(=O)Nc1ccccc1N1CCCC1)c1ccccc1` (configuration not stated), the half-maximal inhibitory concentration (IC50) was 2220 nM.

In the case of `CCC(C(=O)Nc1cccc(N2CCCC2)c1)c1ccccc1` (configuration not stated), the “current change, negative = inhibition” value was “inactive”.

Take `CCC(C(=O)Nc1ccccc1N(C)Cc1ccccc1)c1ccccc1` (configuration not stated): the “current change, negative = inhibition” value is “inactive”.

Regarding `O=C(Nc1ccccc1N1CCCC1)C(c1ccccc1)C1CC1` (configuration not stated), the IC50 is 3500 nM.

For `O=C(Nc1ccccc1N1CCCC1)C1CCc2ccccc21` (configuration not stated), the concentration for half-maximal inhibition (IC50) is 330 nM.

Turning to `CCC(C(=O)Nc1ccc(N2CCCC2)cc1)c1ccccc1` (configuration not stated), the IC50 is 210 nM.
